Measured values from ChEMBL document CHEMBL4387733, “Design, synthesis and biological evaluation of indane derived GPR40 agoPAMs” (Bioorg Med Chem Lett, 2019).
In brackets after ≈: the same amount, converted by molar mass. Activity calls are given as the source filed them. The calls are words filed in the database; no cut-off is given here.

Columns and labels:
[1] = Solubility of the compound in FASSIF; type: physicochemical
[2] = biological target: T1, Free fatty acid receptor 1 (Homo sapiens, UniProt O14842); test: Positive allosteric modulation of recombinant human GPR40 expressed in HEK293 cells assessed as increase in [3H]-myo-inositol phosphate accumulation measured after 60 mins in absence of human serum by microbeta counting method relative to control; type: functional, cell-based; design: concentration or dose not given beside the values
[3] = biological target: T1, Free fatty acid receptor 1; test: Positive allosteric modulation of recombinant human GPR40 expressed in HEK293 cells assessed as increase in [3H]-myo-inositol phosphate accumulation measured after 60 mins in presence of 100% human serum by microbeta counting method; type: functional, cell-based
[4] = biological target: T1, Free fatty acid receptor 1; test: Positive allosteric modulation of recombinant human GPR40 expressed in HEK293 cells assessed as increase in [3H]-myo-inositol phosphate accumulation measured after 60 mins in absence of human serum by microbeta counting method; type: functional, cell-based
[5] = system: Rattus norvegicus; test: Hypoglycemic activity in Sprague-Dawley rat assessed as reduction in blood glucose AUC at 0.3 mg/kg, po pretreated for 1 hr followed by glucose challenge by OGTT relative to control; type: functional
[6] = biological target: T1, Free fatty acid receptor 1; test: Positive allosteric modulation of recombinant human GPR40 expressed in HEK293 cells assessed as increase in [3H]-myo-inositol phosphate accumulation measured after 60 mins in presence of 100% human serum by microbeta counting method relative to control; type: functional, cell-based
[7] = Protein binding in human plasma assessed as unbound fraction level; type: ADME, cell-free
[8] = biological target: T1, Free fatty acid receptor 1; test: Agonist activity at GPR40 (unknown origin) assessed as […] in IP1 accumulation; type: functional
[9] = Stability of the compound in pH 7.4 potassium phosphate buffer at 10 uM measured after 5 hrs; type: physicochemical; details: pH 7.4, 5 h
[10] = Drug metabolism in pH 7.4 potassium phosphate buffer assessed as TAK-875 formation at 10 uM measured after 5 hrs

T1 sequence (O14842 whole entry): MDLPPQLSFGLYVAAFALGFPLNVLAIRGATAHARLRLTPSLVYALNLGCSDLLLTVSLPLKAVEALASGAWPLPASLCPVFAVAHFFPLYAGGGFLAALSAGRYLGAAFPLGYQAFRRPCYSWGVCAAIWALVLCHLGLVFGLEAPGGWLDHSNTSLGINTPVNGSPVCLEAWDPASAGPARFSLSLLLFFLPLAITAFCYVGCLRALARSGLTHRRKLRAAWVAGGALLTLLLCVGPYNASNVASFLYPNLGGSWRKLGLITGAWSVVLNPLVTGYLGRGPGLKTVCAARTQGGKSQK

| SMILES | Activity [2] [%] | EC50 [3] [µM] | EC50 [4] [µM] | Activity [6] [%] | fEC50 [3] [nM] | Fu [7] [%] | also measured |
| --- | --- | --- | --- | --- | --- | --- | --- |
| COc1ccc(F)c(-c2ccc([C@@H]3CCc4ccc([C@H](C5CC5)[C@H](C)C(=O)O)cc4O3)cc2)c1 | – | – | – | – | – | – | solubility [1]: 125 µM (≈ 57.6 µg/mL) |
| COc1ccc(F)c(-c2cc3c(cc2F)[C@H](Oc2cccc([C@H](C4CC4)[C@H](C)C(=O)O)c2)CC3)c1 | 224 | > 10 | 0.155 | – | – | – | – |
| CC#C[C@@H](CC(=O)O)c1ccc(OCc2cccc(-c3ccc(C(F)(F)F)cc3)c2)cc1 | – | – | – | – | – | – | Activity [5]: Active |
| COc1ccc(F)c(-c2ccc3c(c2)OC[C@@H]3Oc2cccc([C@@H](CC(=O)O)C3CC3)c2)c1 | 291 | 7.35 | 0.016 | 138 | 66 | 0.9 | – |
| COc1ccc(F)c(-c2ccc3c(c2C2=CCCC2(C)C)CC[C@H]3Oc2cccc([C@H](C3CC3)[C@H](C)C(=O)O)c2)c1 | 101 | 5.45 | 0.326 | 110 | 2.3 | – | – |
| COc1ccc(F)c(-c2ccc(COc3cccc([C@@H](CC(=O)O)C4CC4)c3)cc2)c1 | – | > 10 | – | – | – | 0.05 | – |
| COc1ccc(F)c(-c2cnc3c(c2)CC[C@H]3Oc2cccc([C@H](C3CC3)[C@H](C)C(=O)O)c2)c1 | 159 | 4.9 | – | 107 | 7.8 | 0.16 | – |
| COc1ccc(F)c(-c2cc3c(cn2)[C@H](Oc2cccc([C@H](C4CC4)[C@H](C)C(=O)O)c2)CC3)c1 | 457 | 3.32 | – | 221 | 4.3 | 0.13 | fold change (FC) [8]: < 100 |
| Cc1cc(OCCCS(C)(=O)=O)cc(C)c1-c1cccc(COc2ccc3c(c2)OC[C@H]3CC(=O)OC2O[C@H](C(=O)O)[C@@H](O)[C@H](O)[C@H]2O)c1 (stereo partly specified) | – | – | – | – | – | – | Stability [9]: Unstable; Drug metabolism [10]: Metabolite detected |
| COc1ccc(F)c(-c2ccc3c(c2)CC[C@@H]3Oc2cccc([C@H](C3CC3)[C@H](C)C(=O)O)c2)c1 | 339 | 5.49 | 0.06 | 84 | 0.6 | – | – |
